Test results as given in ChEMBL document CHEMBL1152560, “Substituted 2-arylbenzothiazoles as kinase inhibitors: hit-to-lead optimization” (Bioorg Med Chem, 2009).

What was measured:
[1] = biological target: Angiopoietin-1 receptor (Homo sapiens, UniProt Q02763); test: Residual activity of TIE2 at 1 uM by microplate scintillation counting
[2] = biological target: T1, Serine/threonine-protein kinase TAO2 (Homo sapiens) (UniProt Q9UL54); test: Residual activity of TAOK2 at 1 uM by microplate scintillation counting
T1 sequence (whole entry): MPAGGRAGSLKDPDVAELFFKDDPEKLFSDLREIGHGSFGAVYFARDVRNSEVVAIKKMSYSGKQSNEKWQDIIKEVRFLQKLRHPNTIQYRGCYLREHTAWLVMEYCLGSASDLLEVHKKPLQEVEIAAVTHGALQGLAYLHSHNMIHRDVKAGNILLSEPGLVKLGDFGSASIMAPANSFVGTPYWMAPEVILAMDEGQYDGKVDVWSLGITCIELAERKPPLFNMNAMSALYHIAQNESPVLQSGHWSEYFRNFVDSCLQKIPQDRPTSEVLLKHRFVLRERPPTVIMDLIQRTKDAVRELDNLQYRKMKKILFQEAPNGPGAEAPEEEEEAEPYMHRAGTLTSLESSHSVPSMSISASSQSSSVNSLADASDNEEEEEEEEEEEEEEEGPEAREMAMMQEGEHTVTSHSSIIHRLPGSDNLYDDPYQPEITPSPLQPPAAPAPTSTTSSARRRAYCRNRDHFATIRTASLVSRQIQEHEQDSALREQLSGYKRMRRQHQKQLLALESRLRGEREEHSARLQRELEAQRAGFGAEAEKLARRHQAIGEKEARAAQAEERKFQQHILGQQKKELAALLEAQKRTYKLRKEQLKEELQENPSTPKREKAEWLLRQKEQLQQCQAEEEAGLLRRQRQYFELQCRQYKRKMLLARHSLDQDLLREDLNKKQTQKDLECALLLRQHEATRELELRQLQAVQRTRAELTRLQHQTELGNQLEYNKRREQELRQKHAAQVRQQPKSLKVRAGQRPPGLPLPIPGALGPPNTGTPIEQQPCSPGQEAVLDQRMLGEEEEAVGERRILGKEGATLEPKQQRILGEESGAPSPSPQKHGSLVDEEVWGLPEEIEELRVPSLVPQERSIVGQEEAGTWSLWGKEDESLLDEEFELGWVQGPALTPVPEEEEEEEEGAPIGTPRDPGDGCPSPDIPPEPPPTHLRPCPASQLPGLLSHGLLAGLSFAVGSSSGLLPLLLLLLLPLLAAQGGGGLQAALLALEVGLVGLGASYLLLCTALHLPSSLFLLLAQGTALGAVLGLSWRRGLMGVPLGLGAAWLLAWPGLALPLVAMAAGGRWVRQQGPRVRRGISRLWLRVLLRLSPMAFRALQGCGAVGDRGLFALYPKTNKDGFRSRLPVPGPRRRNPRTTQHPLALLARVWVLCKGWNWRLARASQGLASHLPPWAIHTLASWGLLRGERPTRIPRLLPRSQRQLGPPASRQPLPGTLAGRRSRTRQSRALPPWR

[3] = biological target: T2, Phosphorylase b kinase gamma catalytic chain, liver/testis isoform (Homo sapiens) (UniProt P15735); test: Residual activity of PHKG2 at 10 uM by microplate scintillation counting
T2 sequence (whole entry): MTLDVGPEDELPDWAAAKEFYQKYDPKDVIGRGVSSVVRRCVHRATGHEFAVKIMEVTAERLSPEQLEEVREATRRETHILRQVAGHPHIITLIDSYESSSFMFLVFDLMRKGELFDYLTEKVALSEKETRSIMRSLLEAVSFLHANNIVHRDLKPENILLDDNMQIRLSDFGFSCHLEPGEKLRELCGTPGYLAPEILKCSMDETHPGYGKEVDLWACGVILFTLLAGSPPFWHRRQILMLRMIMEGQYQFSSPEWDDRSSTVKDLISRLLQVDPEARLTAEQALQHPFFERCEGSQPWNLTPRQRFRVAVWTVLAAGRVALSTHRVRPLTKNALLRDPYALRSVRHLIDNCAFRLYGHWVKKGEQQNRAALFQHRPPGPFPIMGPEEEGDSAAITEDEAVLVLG

[4] = biological target: Vascular endothelial growth factor receptor 3 (Homo sapiens, UniProt P35916); test: Residual activity of VEGFR3 at 1 uM by microplate scintillation counting
Chain of Vascular endothelial growth factor receptor 3 (P35916 whole entry): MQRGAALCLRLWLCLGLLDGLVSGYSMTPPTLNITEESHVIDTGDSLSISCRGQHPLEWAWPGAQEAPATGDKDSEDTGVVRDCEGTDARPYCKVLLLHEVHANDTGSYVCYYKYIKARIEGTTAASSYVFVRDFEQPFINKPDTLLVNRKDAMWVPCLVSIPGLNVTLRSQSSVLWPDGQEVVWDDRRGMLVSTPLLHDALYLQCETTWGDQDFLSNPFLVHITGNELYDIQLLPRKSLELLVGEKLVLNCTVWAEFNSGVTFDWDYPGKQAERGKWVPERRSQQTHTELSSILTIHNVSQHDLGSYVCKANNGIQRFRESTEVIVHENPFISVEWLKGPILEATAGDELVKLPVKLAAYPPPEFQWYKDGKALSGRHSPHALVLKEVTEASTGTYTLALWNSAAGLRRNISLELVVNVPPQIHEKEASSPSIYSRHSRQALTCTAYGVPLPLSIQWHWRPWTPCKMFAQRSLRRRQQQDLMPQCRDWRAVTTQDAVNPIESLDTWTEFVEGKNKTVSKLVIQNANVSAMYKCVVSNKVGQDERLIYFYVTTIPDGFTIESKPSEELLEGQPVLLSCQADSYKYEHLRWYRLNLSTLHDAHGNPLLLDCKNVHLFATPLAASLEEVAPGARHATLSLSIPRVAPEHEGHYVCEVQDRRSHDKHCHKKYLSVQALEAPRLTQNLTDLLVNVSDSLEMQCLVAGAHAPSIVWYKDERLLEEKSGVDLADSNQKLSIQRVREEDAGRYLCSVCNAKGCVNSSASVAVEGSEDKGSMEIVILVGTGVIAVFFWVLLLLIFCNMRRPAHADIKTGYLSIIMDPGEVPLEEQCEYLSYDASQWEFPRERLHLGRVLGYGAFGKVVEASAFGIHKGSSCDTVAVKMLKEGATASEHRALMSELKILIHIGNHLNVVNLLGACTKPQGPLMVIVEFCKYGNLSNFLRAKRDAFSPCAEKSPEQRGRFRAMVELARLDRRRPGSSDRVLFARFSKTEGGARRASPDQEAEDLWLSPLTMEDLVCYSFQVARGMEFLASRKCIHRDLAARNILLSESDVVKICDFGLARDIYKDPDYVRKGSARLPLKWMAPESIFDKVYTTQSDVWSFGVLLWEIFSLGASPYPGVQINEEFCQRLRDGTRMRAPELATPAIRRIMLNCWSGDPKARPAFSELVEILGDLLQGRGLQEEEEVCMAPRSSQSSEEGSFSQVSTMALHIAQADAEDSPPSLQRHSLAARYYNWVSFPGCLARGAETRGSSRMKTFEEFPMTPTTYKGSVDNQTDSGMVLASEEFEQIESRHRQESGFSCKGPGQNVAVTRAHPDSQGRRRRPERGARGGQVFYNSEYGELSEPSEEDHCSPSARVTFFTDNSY

[5] = biological target: T3, Ephrin type-B receptor 1 (Homo sapiens) (UniProt P54762); test: Residual activity of EPHB1 at 10 uM by microplate scintillation counting
T3 sequence (whole entry): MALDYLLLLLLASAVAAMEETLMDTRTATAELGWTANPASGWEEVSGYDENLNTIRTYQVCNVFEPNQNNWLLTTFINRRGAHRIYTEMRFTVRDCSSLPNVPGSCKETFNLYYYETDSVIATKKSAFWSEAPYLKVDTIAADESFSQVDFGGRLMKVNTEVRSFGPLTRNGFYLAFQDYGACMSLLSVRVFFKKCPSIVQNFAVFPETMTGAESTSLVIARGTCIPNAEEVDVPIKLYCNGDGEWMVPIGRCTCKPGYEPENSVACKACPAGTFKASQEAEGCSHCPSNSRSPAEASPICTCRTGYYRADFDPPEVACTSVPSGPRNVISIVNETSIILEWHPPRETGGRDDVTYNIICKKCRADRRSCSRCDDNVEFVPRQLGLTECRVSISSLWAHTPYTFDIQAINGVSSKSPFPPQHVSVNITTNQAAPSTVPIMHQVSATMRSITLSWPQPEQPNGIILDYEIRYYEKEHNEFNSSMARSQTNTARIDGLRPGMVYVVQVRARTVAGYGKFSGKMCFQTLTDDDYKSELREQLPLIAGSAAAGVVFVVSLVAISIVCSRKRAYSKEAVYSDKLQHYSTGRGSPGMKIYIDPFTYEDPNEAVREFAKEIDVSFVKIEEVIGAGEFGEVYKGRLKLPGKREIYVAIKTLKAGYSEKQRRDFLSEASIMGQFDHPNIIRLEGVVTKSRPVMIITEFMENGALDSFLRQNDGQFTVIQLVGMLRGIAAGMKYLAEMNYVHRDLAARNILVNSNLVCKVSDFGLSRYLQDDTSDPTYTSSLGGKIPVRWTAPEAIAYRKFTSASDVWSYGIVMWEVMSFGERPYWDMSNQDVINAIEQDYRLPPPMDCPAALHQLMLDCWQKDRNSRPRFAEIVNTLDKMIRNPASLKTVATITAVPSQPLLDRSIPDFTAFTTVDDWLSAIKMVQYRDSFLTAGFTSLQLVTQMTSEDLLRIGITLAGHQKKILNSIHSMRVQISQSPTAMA

Chain of Angiopoietin-1 receptor (Q02763 whole entry): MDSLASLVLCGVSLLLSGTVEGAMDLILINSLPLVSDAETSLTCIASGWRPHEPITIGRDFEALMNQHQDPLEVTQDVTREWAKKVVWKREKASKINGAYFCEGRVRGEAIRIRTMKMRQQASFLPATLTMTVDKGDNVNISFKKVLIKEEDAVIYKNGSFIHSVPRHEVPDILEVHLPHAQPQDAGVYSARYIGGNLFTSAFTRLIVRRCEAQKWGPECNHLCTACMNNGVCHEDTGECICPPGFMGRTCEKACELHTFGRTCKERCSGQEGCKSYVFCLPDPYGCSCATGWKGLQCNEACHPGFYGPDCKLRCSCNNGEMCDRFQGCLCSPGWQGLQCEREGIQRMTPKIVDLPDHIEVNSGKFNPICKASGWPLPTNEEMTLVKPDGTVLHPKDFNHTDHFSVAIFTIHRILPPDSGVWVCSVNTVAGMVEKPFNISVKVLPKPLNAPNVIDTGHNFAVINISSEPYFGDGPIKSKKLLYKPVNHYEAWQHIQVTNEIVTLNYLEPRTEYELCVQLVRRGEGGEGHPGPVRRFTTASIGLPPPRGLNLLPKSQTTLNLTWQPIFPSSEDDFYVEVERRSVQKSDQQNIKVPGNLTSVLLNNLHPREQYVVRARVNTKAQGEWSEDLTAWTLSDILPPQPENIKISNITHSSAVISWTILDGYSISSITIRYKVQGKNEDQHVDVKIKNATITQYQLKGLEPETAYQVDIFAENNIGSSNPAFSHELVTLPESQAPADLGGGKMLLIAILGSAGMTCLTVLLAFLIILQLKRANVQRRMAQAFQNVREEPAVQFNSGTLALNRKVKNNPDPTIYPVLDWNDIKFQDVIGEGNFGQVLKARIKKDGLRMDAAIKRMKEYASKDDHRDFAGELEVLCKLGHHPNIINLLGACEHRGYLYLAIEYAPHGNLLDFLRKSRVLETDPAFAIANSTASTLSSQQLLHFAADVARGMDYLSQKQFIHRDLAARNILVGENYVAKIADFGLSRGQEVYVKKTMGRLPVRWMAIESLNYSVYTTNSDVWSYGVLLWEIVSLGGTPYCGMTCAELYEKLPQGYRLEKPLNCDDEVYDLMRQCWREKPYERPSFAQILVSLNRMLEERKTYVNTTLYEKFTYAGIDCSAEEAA

Row | SMILES | residual activity [1] [%] | residual activity [2] [%] | residual activity [3] [%] | residual activity [4] [%] | residual activity [5] [%]
1 | COc1cc2c(Oc3ccc(-c4nc5ccccc5s4)cc3F)ncnc2cc1OCCCN1CCN(C)CC1 | 16 | 101 | 88 | 30 | 124
2 | COc1cc2c(Oc3ccc(-c4nc5ccccc5s4)cc3)ncnc2cc1OCCCN1CCCC1 | 23 | 99 | 93 | 32 | 223
3 | COc1cc2c(Oc3ccc(-c4nc5ccccc5s4)cc3)ncnc2cc1OCCCN1CCN(C)CC1 | 22 | 97 | 103 | 34 | 429
